From patent US10882854B2, “Heterocyclic compounds and use thereof” (National Health Research Institutes, priority 2017, dated 2021)
“Also recorded” adds a separate entry of the source.

What was measured:
HCC cell line HCA-1 = test: Syngeneic orthotopic hepatocellular carcinoma (HCC) mouse model; type: in vivo, C3H mice; settings: for tumor size: C3H mice with orthotopic HCA-1, 10 mg/kg/day by osmotic pump for two weeks, combined with sorafenib 40 mg/kg daily, control about 400 mm^3
Experimental: The efficacy of a compound of Formula (I), i.e., Compounds 42, in treating HCC was assessed using a syngeneic mouse model as follows.
C3H mouse-derived HCC cell line HCA-1 was used. HCA-1 cells were orthotopically implanted in C3H mice for 10 days. The mice were subsequently treated with sorafenib (a small molecule drug for treating hepatocellular carcinoma; 40 mg/kg) daily for two weeks or treated with vehicle (PBS) alone as a control. Tested compounds, e.g., AMD3100 (10 mg/kg/day) and Compound 42 (10 mg/kg/day), were each administered continuously to those mice treated with sorafenib using an Alzet osmotic pump (DURECT Corporation, Cupertino, Calif.) for two weeks.

human CXCR4 = biological target: T1, human CXCR4 (Homo sapiens, UniProt P61073); test: Inhibition of 125I-CXCL12 radioligand binding, membranes of human CXCR4-transfected HEK293 cells; settings: 0.16 nM 125I-CXCL12, 60 min at 30 °C, read-out: concentration required to inhibit binding of 125I-CXCL12 to CXCR4 by 50% (IC50)
T1 construct: expressed in transfected cells; host or cells: HEK293 cells (membranes)
Experimental: Binding competition between the compounds of Formula (I) and human CXCL12 was assessed using a radioligand binding assay as described below.
Membranes (2-4 μg) prepared from human CXCR4-transfected HEK293 cells in 40 μL of assay buffer (50 mM HEPES-NaOH, pH 7.4, 100 mM NaCl, 5 mM MgCl2, 1 mM CaCl2, 0.5% bovine serum albumin) were incubated with 20 μL of radio-labeled ^125I-CXCL12 (0.16 nM) and 20 μL of a test compound in an assay plate (Costar Corning, Cambridge, Mass.). After 60 minutes at 30° C., the incubation was terminated by transferring the resulting reaction mixture to a 96-well GF/B filter plate (Millipore Corp., Billerica, Mass.) and filtered via a manifold. The plate was washed with 100 μL of ice-cold wash buffer (50 mM HEPES-NaOH, pH 7.4, 100 mM NaCl) four times. The radioactivity bound to the filter was measured by Topcount (PerkinElmer Inc., Waltham, Mass.).

[1] = system: T-cell acute lymphoblastic leukemia (CCRF-CEM) cells; test: Inhibition of CXCL12-induced chemotaxis in lymphoblastic leukemia cells; type: cell-based; settings: Homo sapiens, CXCL12 10 nM, 2.5 h at 37 °C, read-out: concentration required to inhibit chemotaxis by 50% (EC50)
Experimental: The response of cancer cells to compounds of Formula (I) was evaluated using the chemotaxis assay as set forth below.
T-cell acute lymphoblastic leukemia (CCRF-CEM) cells in Roswell Park Memorial Institute medium (RPMI) 1640 supplemented with 10% […] were incubated with 250 μL of a test compound. The assay was performed using Millicell Hanging Cell Culture Inserts (pore size 5 μm; 24-well plate; Millipore, Bedford, Mass., USA). After 10 minutes at 37° C., 250 μL of cells pre-incubated with a test compound were plated per well in the upper chambers of the inserts at a density of 2.5×10^5 cells/well. 300 μL/well medium containing CXCL12 (10 nM) and a test compound were plated in the lower chamber of the insert. After 2.5 h at 37° C., cells in both chambers of inserts were measured by flow cytometry (Guava Technologies, Hayward, Calif., USA).

[2] = system: acute Kidney Injury (AKI) model; test: Ischemia-reperfusion acute kidney injury (AKI) model in rats; type: in vivo, male Sprague-Dawley rats; settings: 6 mg/Kg subcutaneous 40 min before AKI, blood 24 h after induction of AKI
Experimental: The efficacy of five compounds of Formula (I) in treating Ischemia-Reperfusion injury was assessed using both an acute kidney injury model, an ischemic stroke model, and a limb ischemia model. These five compounds are Compounds 13, 35, 40, 45, and 46. In an acute Kidney Injury (AKI) model, each of the five compounds was dissolved in saline to form a solution. The solution was administered to male Sprague-Dawley rats (National Laboratory Animal Center, Taipei, Taiwan) subcutaneously at a dosage of 6 mg/Kg. 40 minutes after the subcutaneous injection, AKI was induced in the rats by clamping their bilateral renal vein and artery for one hour followed by releasing the vessel clips to allow 24-h reperfusion. Whole blood was collected at 24-h after induction of AKI. Blood urea nitrogen (BUN) and serum creatinine (Scr), two markers that increase upon kidney injury, were measured using a FUJI DRI-CHEM 3500s analyzer (Fujifilm, Tokyo, Japan). Non-AKI rats and AKI rats treated with saline were used as controls.

[3] = system: Hematopoietic stem cells (CD34+) and endothelial progenitor cells (CD133+); test: Mobilization of stem/progenitor cells into peripheral blood in mice; type: in vivo, C57BL/6 male mice
[4] = system: mild traumatic brain injury (mTBI) model; test: Mild traumatic brain injury (mTBI) model in mice; type: in vivo, Adult CD1 mice; settings: CD1 mice, versus vehicle
[5] = system: rat ischemic myocardial infarction model; test: Rat ischemic myocardial infarction model; type: in vivo, Male SD rats; settings: SD rats; 5 mg/kg single subcutaneous injection 30 minutes before LAD ligation; 24 hours; versus saline
Experimental: The efficacy of a compound of Formula (I), i.e., Compound 42, in protecting against myocardial infarction was assessed in a rat ischemic myocardial infarction model as follows.
Male SD rats (400-500 gram each) received a single subcutaneous injection of Compound 42 at a dosage of 5 mg/kg or an equal volume of saline (n=18-20 per group) 30 minutes before surgery was conducted. Left anterior descending artery (LAD) was transiently ligated using a 6-0 nylon suture for a 30-minute ischemic period in this surgery. After 24 hours, each rat was anesthetized and the LAD was ligated again. 2 mL of 5% Evan's Blue was then injected into the tail vein and allowed to perfuse for 2 minutes. The heart was immediately excised, washed with saline, froze at −80° C., and cut in semi-frozen state into 2-mm thick sections. Slices were then incubated in 1% tri-phenyltetrazolium chloride solution for 10 minutes at 37° C. and fixed in 10% formalin. Infarct size was recorded after staining.

T1 sequence (P61073 whole entry): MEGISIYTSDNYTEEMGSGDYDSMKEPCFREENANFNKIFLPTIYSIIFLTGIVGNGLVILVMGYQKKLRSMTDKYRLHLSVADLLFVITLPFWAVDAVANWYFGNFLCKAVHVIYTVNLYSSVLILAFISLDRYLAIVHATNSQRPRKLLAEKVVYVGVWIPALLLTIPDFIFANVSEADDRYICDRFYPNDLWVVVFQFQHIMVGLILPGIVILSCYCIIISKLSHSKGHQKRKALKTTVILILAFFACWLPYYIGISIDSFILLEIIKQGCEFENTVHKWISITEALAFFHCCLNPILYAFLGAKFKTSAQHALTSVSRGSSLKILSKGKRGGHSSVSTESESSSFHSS

Structure (SMILES)	IC50 (human CXCR4) [nM]	EC50 [1] [nM]	other results
c1cc(CN2CCCNCCNCCCNCC2)ccc1CN1CCCNCCNCCCNCC1 [AMD3100, reference compound]			tumor size (HCC cell line HCA-1): about 250 mm^3
N[C@@H](CCC(=O)N1CCC(Nc2nc(NCc3cc(CCCNCCCNC4CCCCC4)on3)nc3ccccc23)CC1)C(=O)O [Compound 29]	< 50	< 50	
N[C@@H](CCC(=O)N1CCC(Nc2nc(NCc3coc(CCCNCCCNC4CCCCC4)n3)nc3ccccc23)CC1)C(=O)O [Compound 30]	< 50	< 50	
N[C@@H](CCC(=O)N1CCC(Nc2nc(NCc3nc(CCCNCCCNC4CCCCC4)cs3)nc3ccccc23)CC1)C(=O)O [Compound 31]	50 to 100	< 50	
N[C@@H](CCC(=O)N1CCC(Nc2nc(NCc3nc(CCCNCCCNC4CCCCC4)co3)nc3ccccc23)CC1)C(=O)O [Compound 32]	50 to 100	< 50	
N[C@@H](CCC(=O)N1CCC(Nc2nc(NCc3nnc(CCCNCCCNC4CCCCC4)o3)nc3ccccc23)CC1)C(=O)O [Compound 34]	50 to 100	50 to 150	
N[C@@H](CCC(=O)N1CCC(Nc2nc(NCc3nnc(CCCNCCCNC4CCCCC4)s3)nc3ccccc23)CC1)C(=O)O [Compound 35]	50 to 100	< 50	BUN level relative to that induced in saline-treated AKI rats [2]: 15%; Scr (serum creatinine) level relative to that induced in saline-treated AKI rats [2]: 22%
N[C@@H](CCC(=O)N1CCC(Nc2nc(NCc3nnc(CCCNCCCNC4CCCCC4)[nH]3)nc3ccccc23)CC1)C(=O)O [Compound 38]	50 to 100	< 50	
Cc1cc(NC2CCN(C(=O)CCNCC(=O)O)CC2)nc(NCc2nc(CCCNCCCNC3CCCCC3)co2)n1 [Compound 42]	< 50	< 50	body weight loss (HCC cell line HCA-1; C3H mice with HCA-1 tumors, 10 mg/kg/day for two weeks): no significant body weight loss; tumor size (HCC cell line HCA-1): about 50 mm^3; vertical activity and vertical movement time in mTBI mice ([4]; 3 mg/kg, 24 hours starting 15-minute after injury): significantly improved vertical activity; expression of inflammatory marker IBA1 in the lesioned cortex (qRTPCR) ([4]; 3 mg/kg, cortex collected day 5 after mTBI, 3 mg/kg): significantly reduced IBA1 expression; also recorded: significantly suppressed; locomotor activity after mTBI ([4]; early post-treatment given systemically after mTBI): significantly improved locomotor activity; protection of heart against ischemic damage (infarct size) [5]: protected heart against ischemic damage to a large degree
N[C@@H](CCC(=O)NCCN1CCC(Nc2nc(NCc3cc(CCCNCCCNC4CCCCC4)on3)nc3ccccc23)CC1)C(=O)NCCP(=O)(O)O [Compound 47]	50 to 100	< 50	
N[C@@H](CCC(=O)NCCN1CCC(Nc2nc(NCc3coc(CCCNCCCNC4CCCCC4)n3)nc3ccccc23)CC1)C(=O)NCCP(=O)(O)O [Compound 48]	50 to 100	< 50	
N[C@@H](CCC(=O)NCCN1CCC(Nc2nc(NCc3nc(CCCNCCCNC4CCCCC4)cs3)nc3ccccc23)CC1)C(=O)NCCP(=O)(O)O [Compound 49]	50 to 100	< 50	hematopoietic stem cell mobilization combined with G-CSF (CFU-GM numbers) [3]: mobilize hematopoietic stem cells synergistically
N[C@@H](CCC(=O)NCCN1CCC(Nc2nc(NCc3nc(CCCNCCCNC4CCCCC4)co3)nc3ccccc23)CC1)C(=O)NCCP(=O)(O)O [Compound 50]	50 to 100	50 to 150	hematopoietic stem cell mobilization combined with G-CSF (CFU-GM numbers) [3]: mobilize hematopoietic stem cells synergistically

More lines, main results first:

IC50 (human CXCR4) [nM]	EC50 [1] [nM]	Structure (SMILES)	other results
< 50	< 50	c1ccc2c(NC3CCNCC3)nc(NCc3nnn(CCCNCCCNC4CCCCC4)n3)nc2c1 [Compound 13]	BUN level relative to that induced in saline-treated AKI rats [2]: 25%; Scr (serum creatinine) level relative to that induced in saline-treated AKI rats [2]: 56%
50 to 100	< 50	CCc1cc(NC2CCNCC2)nc(NCc2nnn(CCCNCCCNC3CCCCC3)n2)n1 [Compound 26]	
50 to 100	50 to 150	N[C@@H](CCC(=O)N1CCC(Nc2nc(NCc3noc(CCCNCCCNC4CCCCC4)n3)nc3ccccc23)CC1)C(=O)O [Compound 33]	
50 to 100	< 50	N[C@@H](CCC(=O)N1CCC(Nc2nc(NCc3nnn(CCCNCCCNC4CCCCC4)n3)nc3ccccc23)CC1)C(=O)O [Compound 37]	
50 to 100	< 50	Cc1cc(NC2CCN(C(=O)CCNCC(=O)O)CC2)nc(NCc2cc(CCCNCCCNC3CCCCC3)on2)n1 [Compound 39]	
< 50	< 50	Cc1cc(NC2CCN(C(=O)CCNCC(=O)O)CC2)nc(NCc2coc(CCCNCCCNC3CCCCC3)n2)n1 [Compound 40]	hematopoietic stem cell mobilization combined with G-CSF (CFU-GM numbers) [3]: mobilize hematopoietic stem cells synergistically; BUN level relative to that induced in saline-treated AKI rats [2]: 20%; Scr (serum creatinine) level relative to that induced in saline-treated AKI rats [2]: 36%
100 to 1000	< 50	Cc1cc(NC2CCN(C(=O)CCNCC(=O)O)CC2)nc(NCc2nc(CCCNCCCNC3CCCCC3)cs2)n1 [Compound 41]	
50 to 100	< 50	Cc1cc(NC2CCN(C(=O)CCNCC(=O)O)CC2)nc(NCc2nnc(CCCNCCCNC3CCCCC3)s2)n1 [Compound 45]	hematopoietic stem cell mobilization combined with G-CSF (CFU-GM numbers) [3]: mobilize hematopoietic stem cells synergistically; BUN level relative to that induced in saline-treated AKI rats [2]: 11%; Scr (serum creatinine) level relative to that induced in saline-treated AKI rats [2]: 10%
50 to 100	50 to 150	Cc1cc(NC2CCN(C(=O)CCNCC(=O)O)CC2)nc(NCc2nnn(CCCNCCCNC3CCCCC3)n2)n1 [Compound 46]	BUN level relative to that induced in saline-treated AKI rats [2]: 22%; Scr (serum creatinine) level relative to that induced in saline-treated AKI rats [2]: 22%
< 50	< 50	O=C(O)CNCCCC(=O)N1CCC(Nc2nc(NCc3nnn(CCCNCCCNC4CCCCC4)n3)nc3ccccc23)CC1 [Compound 59]	
50 to 100	< 50	O=C(O)CNCCC(=O)N1CCC(Nc2nc(NCc3nnn(CCCNCCCNC4CCCCC4)n3)nc3ccccc23)CC1 [Compound 61]	
50 to 100	< 50	Cc1cc(NC2CCN(C(=O)CCCNCC(=O)O)CC2)nc(NCc2nnn(CCCNCCCNC3CCCCC3)n2)n1 [Compound 62]	
